In PubChem BioAssay (NCI):
Several values for one entry are separate records, joined by “and”; a condition that tells them apart may be missing. Identical values can stand only once.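 Briefly, cells in 96-well plates were exposed to five compound concentrations for 48 h, and endpoints were estimated by linear interpolation. Abbreviation: GI50, concentration required for 50% inhibition of growth. TGI is the concentration that stops growth completely.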

Columns and labels:
Assay in all cases: NCI-60 cell line screen, 48 h
HCT-15 colon = tested on: HCT-15 colon
CCRF-CEM leukemia = tested on: CCRF-CEM leukemia
HCC-2998 colon = tested on: HCC-2998 colon
SF-539 CNS = tested on: SF-539 CNS
SF-295 CNS = tested on: SF-295 CNS
HS 578T breast = tested on: HS 578T breast
MALME-3M melanoma = tested on: MALME-3M melanoma
MCF7 breast = tested on: MCF7 breast

| Compound | GI50 (HCT-15 colon) [µM] | TGI (HCT-15 colon) [µM] | GI50 (CCRF-CEM leukemia) [µM] | TGI (CCRF-CEM leukemia) [µM] | GI50 (HCC-2998 colon) [µM] | TGI (HCC-2998 colon) [µM] | GI50 (SF-539 CNS) [µM] | TGI (SF-539 CNS) [µM] | GI50 (SF-295 CNS) [µM] | TGI (SF-295 CNS) [µM] | GI50 (HS 578T breast) [µM] | TGI (HS 578T breast) [µM] | GI50 (MALME-3M melanoma) [µM] | TGI (MALME-3M melanoma) [µM] | GI50 (MCF7 breast) [µM] | TGI (MCF7 breast) |
| --- | --- | --- | --- | --- | --- | --- | --- | --- | --- | --- | --- | --- | --- | --- | --- | --- |
| CN1CC[C@@H](c2c(O)cc(O)c3c(=O)cc(-c4ccccc4Cl)oc23)[C@@H]1CO | 0.351 | > 10 | 0.259 | > 3.13 | 0.36 | 3.67 | 0.275 | 0.863 | 0.335 | > 10 | 0.233 | 1 | 0.361 | 1.58 | 0.241 | > 10 µM |
| C=C1C(=O)OC2/C=C(/C)C(OC(C)=O)CC(O)/C(C)=C\C(OC(=O)/C(C)=C\C)C12 (stereo not drawn) |  | > 100 |  | > 100 |  | > 100 |  | > 100 |  | > 100 |  | > 100 |  | 30.9 |  | > 100 µM |
| COc1ccc(C(=O)c2cc3c(N)c(C(=O)Nc4cccc5ccccc45)sc3nc2C)cc1 | 0.192 | > 50 | 0.199 | > 50 | 0.424 | > 50 | 0.126 |  | 0.172 | > 50 | 0.198 | > 50 | 0.378 | > 50 | 0.191 | > 50 µM |
| N#Cc1c(-c2ccc(Cl)cc2)c2c(n(C3OC(CO)C(O)C(O)C3O)c1=S)CCC2 (stereo not drawn) |  | > 100 |  | 56.7 |  | 42.1 |  | 42.3 |  |  |  | 84.3 |  | 51.8 |  | 40.9 µM |
| Cc1ccc(CNc2c3ccccc3nc3cc(NC(=O)CCN4CCCC4)ccc23)cc1 | 1.29 | 2.63 | 0.392 | 2.12 | 0.573 | 2.01 | 0.618 | 1.9 | 1.04 | 2.35 |  |  | 1.51 | 2.92 | 0.453 | 1.77 µM |
| Nc1[nH]nc2nc(-c3cccs3)cc(C(F)(F)F)c12 | > 25 | > 25 |  |  | > 25 | > 25 | > 25 | > 25 | > 25 | > 25 | > 25 | > 25 | > 25 | > 25 | > 15.8 | > 25 µM |
| CC1=C(CO)C(=O)O[C@@H]([C@@H](C)[C@H]2CC[C@H]3[C@@H]4C[C@@H](O)[C@@]5(O)CC=CC(=O)[C@]5(C)[C@H]4CC[C@]23C)C1 |  | 32.5 |  | > 100 |  | > 100 |  | > 100 |  | > 100 |  | > 100 |  | 44.7 |  | > 100 µM |
| NC(=O)c1c(NC(=O)c2ccc3c(c2)OCO3)sc2c1CCC(=O)C2 |  |  | 0.333 | 2.32 | 3.45 | > 100 |  |  | 2.31 | 6.71 |  |  | 2.04 | 4.67 | 1.96 | > 100 µM |
| COc1cc(/C=C2\Sc3scc(-c4cccc([N+](=O)[O-])c4)[n+]3C2=O)cc(OC)c1OC |  |  |  | 90.6 |  | 27.5 |  | 24.2 |  | 39.5 |  | 57.1 |  | 28.4 |  | 13.7 µM |
| CC(C)(O)CC(=O)NCCn1ccc2ncnc(Nc3ccc(Oc4cccc(C(F)(F)F)c4)c(Cl)c3)c21 | 2.5 | > 10 | 3.26 | > 10 | 3.85 | > 10 | 4.03 | > 10 | 3.79 | > 10 | 4.6 | > 10 |  | > 10 | 2.98 | > 10 µM |
| C=C1C(=O)OC2C1C(OC(=O)/C(C)=C/C)CC(O)(CCl)C1C(O)C3OC3(C)C21O (stereo not drawn) |  | > 50 |  | > 50 |  | > 50 |  | > 50 |  | > 50 |  | > 50 |  | 10.6 |  | > 50 µM |
| COc1ccc2c(c1)C(=O)c1c-2c(N(C)C)nc2ccccc12 | > 100 | > 100 | > 100 | > 100 | > 100 | > 100 | > 100 | > 100 |  |  | > 100 | > 100 | > 100 | > 100 | > 100 | > 100 µM |
| COc1ccc(/C=C2\CCCC3=C2NC(N)=NC3c2ccc(OC)c(OC)c2)cc1OC (stereo not drawn) | 9.68 | > 100 | 2.42 | > 100 | > 100 | > 100 | 24.4 | > 100 | 8.69 | > 100 | 21.5 | > 100 | 23.7 | > 70.2 | 1.89 | > 100 µM |
| CCc1ccc(NC(=O)COC(=O)c2cc([N+](=O)[O-])ccc2Sc2nnnn2C)cc1 | 13 | 37.3 | 9.11 | 78.3 | 15.7 | 29.2 | 16.7 | 42.8 | 17.5 | 49.4 | 2.65 | 9.36 | 24.2 | > 100 | 20.1 | 60.6 µM |
| O=[N+]([O-])c1cccc([As]=[As]c2cccc([N+](=O)[O-])c2)c1 (stereo not drawn) | 0.0437 | 0.174 | 0.0273 | 0.112 | 0.13 | 0.275 | 0.0737 | 0.201 | 0.178 | 0.34 | 0.098 | 0.498 | 0.0562 | 0.155 | 0.0327 | 0.137 µM |
| COC(=O)c1cc2ccc(OC(C)=O)c(OC(C)=O)c2cn1 |  | 39 |  | 5.57 |  | 44.6 |  | 33.8 | 42.1 |  |  |  | 11.5 | 24 | 16.7 | 6 µM and 35.5 µM |
| O=C(COc1ccc(/C=C2\Oc3ccccc3C2=O)cc1)Nc1nc2c(s1)CCCC2 | 25.1 | > 100 | 0.148 | 0.309 | 16 | 52.3 | 0.622 | 1.4 | 10.1 | 43.9 |  | 7.78 | 1.25 | > 78.5 | 15.8 | > 100 µM |
